The source of these data is patent US20200291018A1, “TAM KINASE INHIBITORS” (SYROS PHARMACEUTICALS, INC., priority 2017, published 2020).

One assay has as its target T1, FLT3 (Homo sapiens, UniProt P36888).
T1 sequence (P36888 27-993): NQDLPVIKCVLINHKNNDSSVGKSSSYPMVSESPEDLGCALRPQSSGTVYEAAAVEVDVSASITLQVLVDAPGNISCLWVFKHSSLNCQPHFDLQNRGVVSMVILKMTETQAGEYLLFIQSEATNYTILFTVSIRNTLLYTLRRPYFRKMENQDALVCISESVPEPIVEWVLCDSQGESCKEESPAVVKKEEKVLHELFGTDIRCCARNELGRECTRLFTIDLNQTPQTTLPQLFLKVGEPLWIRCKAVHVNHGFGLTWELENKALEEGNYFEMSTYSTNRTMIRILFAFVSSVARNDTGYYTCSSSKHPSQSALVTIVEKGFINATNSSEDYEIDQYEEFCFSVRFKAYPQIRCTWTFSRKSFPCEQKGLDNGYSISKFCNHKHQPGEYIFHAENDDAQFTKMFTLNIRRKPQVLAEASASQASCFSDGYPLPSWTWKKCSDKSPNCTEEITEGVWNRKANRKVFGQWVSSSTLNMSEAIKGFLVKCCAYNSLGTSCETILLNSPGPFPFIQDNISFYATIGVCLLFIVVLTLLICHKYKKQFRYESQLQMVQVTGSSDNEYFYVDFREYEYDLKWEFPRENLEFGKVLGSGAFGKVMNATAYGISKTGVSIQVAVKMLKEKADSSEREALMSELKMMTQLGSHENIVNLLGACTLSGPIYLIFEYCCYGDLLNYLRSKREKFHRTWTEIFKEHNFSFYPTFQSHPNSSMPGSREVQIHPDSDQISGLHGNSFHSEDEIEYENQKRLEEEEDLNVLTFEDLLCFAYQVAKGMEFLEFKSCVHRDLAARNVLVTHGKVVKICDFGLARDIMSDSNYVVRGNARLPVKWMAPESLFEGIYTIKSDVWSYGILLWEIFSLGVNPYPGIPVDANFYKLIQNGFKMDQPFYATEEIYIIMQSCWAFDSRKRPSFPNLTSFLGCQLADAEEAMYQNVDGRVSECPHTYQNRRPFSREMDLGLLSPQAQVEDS
Put plainly: TR-FRET kinase activity assay, FLT3. In kind it is biochemical. Particulars: ATP at Km, 60 minutes. The essentials: (§1)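 IC50s come from loss of TR-FRET between a Eu-labeled phospho-site antibody and fluorescent tyrosine-phosphorylated peptide. Kinase reactions, initiated with Km ATP, ran 60 min at RT at pH 7.5 before EDTA quench.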
On the technique in general: TR-FRET usually uses a lanthanide donor and a delayed reading to cut background.

Another assay has as its target T2, MERTK (Homo sapiens, UniProt Q12866).
T2 sequence (Q12866 21-999): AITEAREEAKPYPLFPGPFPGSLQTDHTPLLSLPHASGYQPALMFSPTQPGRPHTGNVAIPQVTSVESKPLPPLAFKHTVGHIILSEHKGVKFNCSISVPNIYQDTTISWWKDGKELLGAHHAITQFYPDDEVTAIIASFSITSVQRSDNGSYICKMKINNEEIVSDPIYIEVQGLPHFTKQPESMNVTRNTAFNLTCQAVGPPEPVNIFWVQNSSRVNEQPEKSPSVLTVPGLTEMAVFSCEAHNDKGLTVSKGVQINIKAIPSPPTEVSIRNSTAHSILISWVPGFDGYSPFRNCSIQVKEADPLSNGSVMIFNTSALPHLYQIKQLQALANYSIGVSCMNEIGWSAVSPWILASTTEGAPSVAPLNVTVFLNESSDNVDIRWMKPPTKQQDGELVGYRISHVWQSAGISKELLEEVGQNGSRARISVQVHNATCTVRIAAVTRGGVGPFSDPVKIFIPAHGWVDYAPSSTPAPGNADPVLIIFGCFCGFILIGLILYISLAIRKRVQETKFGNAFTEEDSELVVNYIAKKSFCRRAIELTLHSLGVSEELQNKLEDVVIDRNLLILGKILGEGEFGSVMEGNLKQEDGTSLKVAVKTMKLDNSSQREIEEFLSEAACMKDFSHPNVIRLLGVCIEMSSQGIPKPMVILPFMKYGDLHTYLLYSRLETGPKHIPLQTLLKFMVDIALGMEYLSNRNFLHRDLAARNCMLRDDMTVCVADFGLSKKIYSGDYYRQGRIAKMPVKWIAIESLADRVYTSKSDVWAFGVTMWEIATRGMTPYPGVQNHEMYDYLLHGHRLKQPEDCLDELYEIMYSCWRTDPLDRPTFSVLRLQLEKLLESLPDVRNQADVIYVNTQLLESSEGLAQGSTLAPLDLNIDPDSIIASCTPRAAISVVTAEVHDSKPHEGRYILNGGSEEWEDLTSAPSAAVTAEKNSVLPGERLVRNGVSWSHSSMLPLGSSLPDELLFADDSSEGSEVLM
Put plainly: TR-FRET kinase activity assay, MERTK. The assay is classed as biochemical. Particulars: for IC50: TR-FRET activity assay, ATP at Km, 60 minutes, read-out: Mer IC50; for Mer/Flt3 ratio (FLT3 IC50/Mer IC50): ratio calculated as FLT3 IC50/Mer IC50. Summed up:
as §1

The term IC50 denotes the point on the concentration scale where inhibition reaches its midpoint. Turning to `CCC(CC)Nc1ncc2c(=O)n(C3CCNCC3)cc([C@H]3CC[C@H](O)CC3)c2n1` [Compound 120], the IC50 at FLT3 was 1 to 10 µM; at MERTK it was at most 0.1 µM. Also, on MERTK, the “Mer/Flt3 ratio (FLT3 IC50/Mer IC50)” value is on record as “+++ (a ratio of >100)”.
Regarding `COC[C@H](C)Nc1ncc2c(OC3CCOCC3)ncc([C@H]3CC[C@H](O)CC3)c2n1` [Compound 122, (1S,4r)-4-(2-(((S)-1-methoxypropan-2-yl)amino)-5-((tetrahydro-2H-pyran-4-yl)oxy)pyrido[4,3-d]pyrimidin-8-yl)cyclohexan-1-ol], the figures for the IC50 at FLT3 and on MERTK were 1 to 10 µM and at most 0.1 µM, respectively. The “Mer/Flt3 ratio (FLT3 IC50/Mer IC50)” value on MERTK is recorded as “+++ (a ratio of >100)”.
Compound `CCCCNc1ncc2c(NC3CCOCC3)ncc([C@H]3CC[C@H](O)CC3)c2n1` [Compound 124] gave an IC50 against FLT3 of at most 0.1 µM. Also, on MERTK, the IC50 was at most 0.1 µM; the “Mer/Flt3 ratio (FLT3 IC50/Mer IC50)” value is “+ (a ratio of >2.0 and <10)”.
As for `CCCCNc1ncc2c(OCCOC)ncc([C@H]3CC[C@H](O)CC3)c2n1` [Compound 125], the IC50 against FLT3 was at most 0.1 µM. Further, on MERTK, the IC50 is at most 0.1 µM and the “Mer/Flt3 ratio (FLT3 IC50/Mer IC50)” value is reported as “NS (a ratio of ≤2.0)”.
With `CCC[C@H](C)Nc1ncc2c(=O)n(C3CCNCC3)cc([C@H]3CC[C@H](O)CC3)c2n1` [Compound 126], the IC50 at FLT3 is 1 to 10 µM. Besides, at MERTK, the IC50 was at most 0.1 µM and the “Mer/Flt3 ratio (FLT3 IC50/Mer IC50)” value is recorded as “+++ (a ratio of >100)”.
As to `COCCN1C(C)(C)CC(Oc2ncc([C@H]3CC[C@H](O)CC3)c3nc(N[C@@H](C)CC(F)(F)F)ncc23)CC1(C)C` [Compound 355], the IC50 on FLT3 was 0.1 to 1 µM; on MERTK, at most 0.1 µM. For the same compound, the “Mer/Flt3 ratio (FLT3 IC50/Mer IC50)” value at MERTK is reported as “+++ (a ratio of >100)”.
Take `Cc1ncc([C@H]2CC[C@H](O)CC2)c2nc(N[C@@H](C)CC(F)(F)F)ncc12` [Compound 356]: the IC50 against FLT3 was in the range of 1 to 10 µM. On MERTK, the IC50 was at most 0.1 µM and the “Mer/Flt3 ratio (FLT3 IC50/Mer IC50)” value is “+++ (a ratio of >100)”.
Turning to `COC[C@H](C)Nc1ncc2c(O[C@H]3CCOC3)ncc([C@H]3CC[C@H](O)CC3)c2n1` [Compound 357], the IC50 against FLT3 was 1 to 10 µM. At MERTK, the IC50 was at most 0.1 µM and the “Mer/Flt3 ratio (FLT3 IC50/Mer IC50)” value is recorded as “+++ (a ratio of >100)”.
As for `COC[C@H](C)Nc1ncc2c(OC3CCOCC3)ncc(C3CCC(F)(F)CC3)c2n1` [Compound 358], the IC50 against FLT3 lay within 1 to 10 µM. Besides, on MERTK, the IC50 was at most 0.1 µM; the “Mer/Flt3 ratio (FLT3 IC50/Mer IC50)” value was “++ (a ratio of between 10 and 100)”.
For `CCOc1ncc([C@H]2CC[C@H](O)CC2)c2nc(N[C@@H](C)CC(F)(F)F)ncc12` [Compound 359], the figures for the IC50 at FLT3 and on MERTK were 0.1 to 1 µM and at most 0.1 µM, respectively. For the same compound, on MERTK, the “Mer/Flt3 ratio (FLT3 IC50/Mer IC50)” value is recorded as “+++ (a ratio of >100)”.
`C[C@@H](CC(F)(F)F)Nc1ncc2c(O[C@H]3C[C@@H](O)C3)ncc([C@H]3CC[C@H](O)CC3)c2n1` [Compound 360]: the concentration for half-maximal inhibition (IC50) was 0.1 to 1 µM against FLT3 and at most 0.1 µM on MERTK. At MERTK, the “Mer/Flt3 ratio (FLT3 IC50/Mer IC50)” value was “+++ (a ratio of >100)”.
Taken in the same sequence, the figures for `COC[C@H](C)Nc1ncc2c(OC3CC(C)(C)N(C(C)=O)C(C)(C)C3)ncc([C@H]3CC[C@H](O)CC3)c2n1` [Compound 361] were 1 to 10 µM, at most 0.1 µM and “+++ (a ratio of >100)”.
The matching figures for `COC[C@H](C)Nc1ncc2c(Nc3ccncc3)ncc([C@H]3CC[C@H](O)CC3)c2n1` [Compound 362]: 1 to 10 µM, at most 0.1 µM and “+++ (a ratio of >100)”.
Take `COC[C@H](C)Nc1ncc2c(Nc3cccnc3)ncc([C@H]3CC[C@H](O)CC3)c2n1` [Compound 363]: the IC50 against FLT3 is 1 to 10 µM; at MERTK, at most 0.1 µM. For the same compound, the “Mer/Flt3 ratio (FLT3 IC50/Mer IC50)” value at MERTK is reported as “+++ (a ratio of >100)”.
At FLT3, `C[C@@H](CC(F)(F)F)Nc1ncc2c(O[C@H]3C[C@H](O)C3)ncc([C@H]3CC[C@H](O)CC3)c2n1` [Compound 364] displayed an IC50 of 0.1 to 1 µM. Moreover, on MERTK, the 50% inhibitory concentration (IC50) was at most 0.1 µM and the “Mer/Flt3 ratio (FLT3 IC50/Mer IC50)” value is “+++ (a ratio of >100)”.
Take `C[C@H](Nc1ncc2c(OC3CCOCC3)ncc([C@H]3CC[C@H](O)CC3)c2n1)C(F)F` [Compound 365]: the IC50 against FLT3 fell in the range of 1 to 10 µM. Besides, on MERTK, the IC50 is at most 0.1 µM and the “Mer/Flt3 ratio (FLT3 IC50/Mer IC50)” value is “+++ (a ratio of >100)”.
Taken in the same sequence, the figures for `COC[C@H](C)Nc1ncc2c(O[C@@H]3CCN(C)C3)ncc([C@H]3CC[C@H](O)CC3)c2n1` [Compound 366] were 1 to 10 µM, at most 0.1 µM and “+++ (a ratio of >100)”.
Consider `CC[C@@H](C)Nc1ncc2c(OC3CC(C)(C)N(C)C(C)(C)C3)ncc([C@H]3CC[C@H](O)CC3)c2n1` [Compound 367], for which the IC50 against FLT3 lay in the range of 0.1 to 1 µM. Also, at MERTK, the IC50 was at most 0.1 µM and the “Mer/Flt3 ratio (FLT3 IC50/Mer IC50)” value is reported as “+++ (a ratio of >100)”.
On FLT3, `COC[C@H](C)Nc1ncc2c(O[C@H]3CCN(C)C3)ncc([C@H]3CC[C@H](O)CC3)c2n1` [Compound 368] displayed an IC50 above 10 µM. Also, on MERTK, the IC50 is at most 0.1 µM and the “Mer/Flt3 ratio (FLT3 IC50/Mer IC50)” value is listed as “+++ (a ratio of >100)”.
On FLT3, `COCCN1CCC(Oc2ncc([C@H]3CC[C@H](O)CC3)c3nc(N[C@@H](C)CC(F)(F)F)ncc23)CC1` [Compound 369] came in with an IC50 of 1 to 10 µM. Further, at MERTK, the IC50 was at most 0.1 µM and the “Mer/Flt3 ratio (FLT3 IC50/Mer IC50)” value is “+++ (a ratio of >100)”.
The matching figures for `C[C@@H](CC(F)(F)F)Nc1ncc2c(OC3C[C@H]4CC[C@@H](C3)N4C)ncc([C@H]3CC[C@H](O)CC3)c2n1` (stereo partly drawn) [Compound 370]: 0.1 to 1 µM, at most 0.1 µM and “+++ (a ratio of >100)”.
On FLT3, `COC[C@H](C)Nc1ncc2c(OC3C[C@@H](C)N(C)[C@@H](C)C3)ncc([C@H]3CC[C@H](O)CC3)c2n1` (stereo partly drawn) [Compound 371] showed an IC50 of 1 to 10 µM. Besides, at MERTK, the 50% inhibitory concentration (IC50) was at most 0.1 µM and the “Mer/Flt3 ratio (FLT3 IC50/Mer IC50)” value is on record as “+++ (a ratio of >100)”.
As for `COC[C@H](C)Nc1ncc2c(Nc3ccnc(C)c3)ncc([C@H]3CC[C@H](O)CC3)c2n1` [Compound 372], the IC50 on FLT3 is 1 to 10 µM; on MERTK, at most 0.1 µM. Besides, on MERTK, the “Mer/Flt3 ratio (FLT3 IC50/Mer IC50)” value is reported as “+++ (a ratio of >100)”.
`C[C@@H](CC(F)(F)F)Nc1ncc2c(OC3CCN(c4ncccn4)CC3)ncc([C@H]3CC[C@H](O)CC3)c2n1` [Compound 373] showed an IC50 against FLT3 of 1 to 10 µM. In addition, at MERTK, the concentration for half-maximal inhibition (IC50) was at most 0.1 µM and the “Mer/Flt3 ratio (FLT3 IC50/Mer IC50)” value is “+++ (a ratio of >100)”.
The matching figures for `COC[C@H](C)Nc1ncc2c(Nc3ccc(C)nc3)ncc([C@H]3CC[C@H](O)CC3)c2n1` [Compound 374]: 1 to 10 µM, at most 0.1 µM and “+++ (a ratio of >100)”.
